Results as given in the supplement of paper PMC8671470.

How the values were obtained:
Conditions in all cases: 72 h
BV-173 [1] = assay: cell viability (% survival relative to DMSO control, bortezomib = 0%); higher = less cytotoxic
In short: (§1)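 Fifteen myeloid leukaemia cell lines were exposed to compounds at 1, 10, 100, 1000 or 10000 nM in 384-well plates for 72 h at 37 °C and 5% CO2. Viability was read by CellTiter-Glo luminescence and normalised, with vehicle as 100% and a 10 µM positive control as 0%. Values are percent survival averaged over duplicates.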

MOLM-13 [2] = assay: as above
In short: as §1

KG-1 [3] = assay: as above
In short: as §1

HL-60 [4] = assay: as above
In short: as §1

Mono-Mac-6 [5] = assay: as above
In short: as §1

K-562 [6] = assay: as above
In short: as §1

KCL-22 [7] = assay: as above
In short: as §1

ML-2 [8] = assay: as above
In short: as §1

HEL [9] = assay: as above
In short: as §1

NOMO-1 [10] = assay: as above
In short: as §1

MV4-11 [11] = assay: as above
In short: as §1

SHI-1 [12] = assay: as above
In short: as §1

THP-1 [13] = assay: as above
In short: as §1

KU-812 [14] = assay: as above
In short: as §1

HL-60 [15] = assay: area under dose-response curve (viability, 1 nM-10 uM) (fraction (0-1)); higher = more sensitive
In short: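 HL-60 cells in RPMI 1640 with 10% FBS were rescreened against the full library on 384-well plates at five tenfold concentrations, 1–10,000 nM, in duplicate. Each screen was run with DMSO or 100 nM of one of three metabolic inhibitors, for 72 h at 37 °C, 5% CO2. Viability was read by CellTiter-Glo and normalised to DMSO and 10 μM proteasome-inhibitor wells. Where given, area under the curve came from four-parameter log-logistic fits (drc, PharmacoGx).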

BV-173 [16] = test system: BV-173
In short: (§2)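 In 384-well plates holding acoustically pre-printed compounds at five tenfold doses from 1 to 10,000 nM, in duplicate, fifteen myeloid leukaemia cell lines were grown in RPMI 1640 for 72 h at 37 °C with 5% CO2. Luminescent ATP viability was scaled between vehicle and a positive control at 10 µM. The IC50 was then taken from log-logistic dose–response fits with four parameters.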

MOLM-13 [17] = test system: MOLM-13
In short: as §2

KG-1 [18] = test system: KG-1
In short: as §2

HL-60 [19] = test system: HL-60
In short: as §2

Mono-Mac-6 [20] = test system: Mono-Mac-6
In short: as §2

K-562 [21] = test system: K-562
In short: as §2

KCL-22 [22] = test system: KCL-22
In short: as §2

ML-2 [23] = test system: ML-2
In short: as §2

HEL [24] = test system: HEL
In short: as §2

LAMA-84 = test system: LAMA-84
In short: as §2

NOMO-1 [25] = test system: NOMO-1
In short: as §2

MV4-11 [26] = test system: MV4-11
In short: as §2

SHI-1 [27] = test system: SHI-1
In short: as §2

THP-1 [28] = test system: THP-1
In short: as §2

KU-812 [29] = test system: KU-812
In short: as §2

O=C(O)Cn1nnc(-c2cc(N3CCC(Oc4cc(F)ccc4Br)CC3)no2)n1 [MK-8245]
Conditions	area under dose-response curve, co-treatment: AZD3965 100 nM	area under dose-response curve, co-treatment: DMSO vehicle	area under dose-response curve, co-treatment: GSK2194069 100 nM	area under dose-response curve, co-treatment: pictilisib 100 nM	cell viability, 1 nM [%]	cell viability, 10 nM [%]	cell viability, 100 nM [%]	cell viability, 1000 nM [%]	cell viability, 10000 nM [%]
BV-173 [1]	–	–	–	–	88.1	105	91.2	88.6	87.3
HEL [9]	–	–	–	–	108	115	75.6	92.7	91.2
HL-60 [4]	–	–	–	–	105	93.2	108	50.7	94.3
HL-60 [15]	< 0.0301	< 0.0301	< 0.0301	< 0.0301	–	–	–	–	–
K-562 [6]	–	–	–	–	97.7	122	90.5	88.2	41.2
KCL-22 [7]	–	–	–	–	105	118	95.5	97.7	60.1
KG-1 [3]	–	–	–	–	105	117	108	102	112
KU-812 [14]	–	–	–	–	99	107	93.4	88.2	94.7
ML-2 [8]	–	–	–	–	109	111	102	105	96.7
MOLM-13 [2]	–	–	–	–	104	131	86.1	48.2	35.8
MV4-11 [11]	–	–	–	–	96.8	91.6	92.4	116	94.2
Mono-Mac-6 [5]	–	–	–	–	91.1	90.8	94.2	94.6	88
NOMO-1 [10]	–	–	–	–	95.8	103	96.9	96.9	90
SHI-1 [12]	–	–	–	–	99	119	103	97.8	90.8
THP-1 [13]	–	–	–	–	95.3	96.1	102	99	89.2

Conditions	IC50 (cell viability) [µM]
BV-173 [16]	> 10
HEL [24]	> 10
HL-60 [19]	> 10
K-562 [21]	6.81
KCL-22 [22]	> 10
KG-1 [18]	> 10
KU-812 [29]	> 10
LAMA-84	> 10
ML-2 [23]	> 10
MOLM-13 [17]	0.643
MV4-11 [26]	> 10
Mono-Mac-6 [20]	> 10
NOMO-1 [25]	> 10
SHI-1 [27]	> 10
THP-1 [28]	> 10

CCCCN1C[C@H](O)[C@@H](O)[C@H](O)[C@H]1CO [Miglustat]
Conditions	area under dose-response curve, co-treatment: AZD3965 100 nM	area under dose-response curve, co-treatment: DMSO vehicle	area under dose-response curve, co-treatment: GSK2194069 100 nM	area under dose-response curve, co-treatment: pictilisib 100 nM	cell viability, 1 nM [%]	cell viability, 10 nM [%]	cell viability, 100 nM [%]	cell viability, 1000 nM [%]	cell viability, 10000 nM [%]
BV-173 [1]	–	–	–	–	90.7	104	95.6	97.8	86.8
HEL [9]	–	–	–	–	92.6	103	95.2	101	93.6
HL-60 [4]	–	–	–	–	87.6	81.8	98.7	101	91.8
HL-60 [15]	< 0.0301	< 0.0301	< 0.0301	< 0.0301	–	–	–	–	–
K-562 [6]	–	–	–	–	94.4	95.8	94.4	99.4	89.9
KCL-22 [7]	–	–	–	–	90.9	82.1	97.8	98.1	82.9
KG-1 [3]	–	–	–	–	92.6	102	94.8	103	93.2
KU-812 [14]	–	–	–	–	87.9	94.6	89.5	105	86.7
ML-2 [8]	–	–	–	–	95.4	112	86.5	101	94.9
MOLM-13 [2]	–	–	–	–	90	102	90.7	93.9	90.8
MV4-11 [11]	–	–	–	–	99.2	91.3	103	94.4	92.2
Mono-Mac-6 [5]	–	–	–	–	82.9	90.4	92.4	95.4	92.7
NOMO-1 [10]	–	–	–	–	94.3	98.4	94	103	90
SHI-1 [12]	–	–	–	–	106	93	102	98.6	88.7
THP-1 [13]	–	–	–	–	91.1	93.3	89.6	102	94.7

Conditions	IC50 (cell viability) [µM]
BV-173 [16]	> 10
HEL [24]	> 10
HL-60 [19]	> 10
K-562 [21]	> 10
KCL-22 [22]	> 10
KG-1 [18]	> 10
KU-812 [29]	> 10
LAMA-84	> 10
ML-2 [23]	> 10
MOLM-13 [17]	> 10
MV4-11 [26]	> 10
Mono-Mac-6 [20]	> 10
NOMO-1 [25]	> 10
SHI-1 [27]	> 10
THP-1 [28]	> 10

Oc1ccc(Nc2nc(-c3ccc(Cl)cc3)cs2)cc1 [SKI II]
Conditions	area under dose-response curve, co-treatment: AZD3965 100 nM	area under dose-response curve, co-treatment: DMSO vehicle	area under dose-response curve, co-treatment: GSK2194069 100 nM	area under dose-response curve, co-treatment: pictilisib 100 nM	cell viability, 1 nM [%]	cell viability, 10 nM [%]	cell viability, 100 nM [%]	cell viability, 1000 nM [%]	cell viability, 10000 nM [%]
BV-173 [1]	–	–	–	–	104	98.3	96.7	70.5	0.732
HEL [9]	–	–	–	–	102	109	111	95.5	5.26
HL-60 [4]	–	–	–	–	88.9	110	97.7	77.7	11.2
HL-60 [15]	0.0929	0.0805	0.0628	0.151	–	–	–	–	–
K-562 [6]	–	–	–	–	99.5	107	107	75.2	36.8
KCL-22 [7]	–	–	–	–	94.5	107	109	92.1	25.7
KG-1 [3]	–	–	–	–	98	103	97.2	81.7	32.7
KU-812 [14]	–	–	–	–	95.5	101	106	90.8	20.6
ML-2 [8]	–	–	–	–	93.8	97.2	99.3	89.7	44
MOLM-13 [2]	–	–	–	–	80	104	110	106	44.3
MV4-11 [11]	–	–	–	–	97.2	99.2	114	95.9	4.54
Mono-Mac-6 [5]	–	–	–	–	99.2	97.8	100	93.5	14.3
NOMO-1 [10]	–	–	–	–	97.3	104	104	99.3	66.1
SHI-1 [12]	–	–	–	–	94.9	97.8	99.7	96	53.3
THP-1 [13]	–	–	–	–	100	96.8	103	86.4	8.38

Conditions	IC50 (cell viability) [µM]
BV-173 [16]	1.54
HEL [24]	3.22
HL-60 [19]	2.26
K-562 [21]	2.51
KCL-22 [22]	3.07
KG-1 [18]	3.93
KU-812 [29]	2.9
LAMA-84	6.79
ML-2 [23]	5.58
MOLM-13 [17]	8.97
MV4-11 [26]	3.2
Mono-Mac-6 [20]	4.12
NOMO-1 [25]	> 10
SHI-1 [27]	> 10
THP-1 [28]	2.48
